Source: PubChem BioAssay AID1845210 (Molecular Pharmacology Branch, DTP, NCI, 2023)

Tested on: NCI-H226 complex tumor spheroids, viability
Assay: Anticancer human tumor NCI-H226 cell line growth inhibition;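 further: spheroids exposed to compound for 7 days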;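 on viability, T/C: 100% = DMSO vehicle control viability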
Settings: for IC50: curve of first compound; for viability, T/C: stronger effect = lower value
How it was run: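 Complex tumor spheroids combined malignant cells with endothelial cells and mesenchymal stem cells. DNA-damaging drugs and DNA repair inhibitors were tested alone and in combination, at half-log dilutions down from clinical Cmax (top 10 microM if Cmax unknown), 0.25% DMSO final.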

[1] = second compound 30 pM, first compound 0.0316 µM
[2] = second compound 30 pM, first compound 0.1 µM
[3] = second compound 30 pM, first compound 0.316 µM
[4] = second compound 30 pM, first compound 1 µM
[5] = second compound 30 pM, first compound 3.16 µM
[6] = second compound 30 pM, first compound 10 µM
[7] = second compound 94.9 pM, first compound 0.0316 µM
[8] = second compound 94.9 pM, first compound 0.1 µM
[9] = second compound 94.9 pM, first compound 0.316 µM
[10] = second compound 94.9 pM, first compound 1 µM
[11] = second compound 94.9 pM, first compound 3.16 µM
[12] = second compound 94.9 pM, first compound 10 µM
[13] = second compound 0.0003 µM, first compound 0.0316 µM
[14] = second compound 0.0003 µM, first compound 0.1 µM
[15] = second compound 0.0003 µM, first compound 0.316 µM
[16] = second compound 0.0003 µM, first compound 1 µM
[17] = second compound 0.0003 µM, first compound 3.16 µM
[18] = second compound 0.0003 µM, first compound 10 µM
[19] = second compound 0.000949 µM, first compound 0.0316 µM
[20] = second compound 0.000949 µM, first compound 0.1 µM
[21] = second compound 0.000949 µM, first compound 0.316 µM
[22] = second compound 0.000949 µM, first compound 1 µM
[23] = second compound 0.000949 µM, first compound 3.16 µM
[24] = second compound 0.000949 µM, first compound 10 µM
[25] = second compound 0.003 µM, first compound 0.0316 µM
[26] = second compound 0.003 µM, first compound 0.1 µM
[27] = second compound 0.003 µM, first compound 0.316 µM
[28] = second compound 0.003 µM, first compound 1 µM
[29] = second compound 0.003 µM, first compound 3.16 µM
[30] = second compound 0.003 µM, first compound 10 µM

CC1COCCN1c1cc(-c2ccnn2C)c2ccnc(-c3ccn[nH]3)c2n1 (stereo not given) + COc1cc2c(cc1O)CCNC21CSC2c3c(OC(C)=O)c(C)c4c(c3C(COC1=O)N1C(O)C3Cc5cc(C)c(OC)c(O)c5C(C21)N3C)OCO4
IC50 (second compound 30 pM): 3.12 µM | IC50 (second compound 94.9 pM): > 10 µM | IC50 (second compound 0.0003 µM): > 10 µM | IC50 (second compound 0.000949 µM): 3.65 µM | IC50 (second compound 0.003 µM): < 0.0316 µM | viability, T/C [1]: 120% | viability, T/C [2]: 108% | viability, T/C [3]: 89.1% | viability, T/C [4]: 61.3% | viability, T/C [5]: 50.9% | viability, T/C [6]: 45.2% | viability, T/C [7]: 106% | viability, T/C [8]: 112% | viability, T/C [9]: 80% | viability, T/C [10]: 62.1% | viability, T/C [11]: 53.5% | viability, T/C [12]: 50.4% | viability, T/C [13]: 109% | viability, T/C [14]: 108% | viability, T/C [15]: 98.9% | viability, T/C [16]: 71.3% | viability, T/C [17]: 57.8% | viability, T/C [18]: 56.7% | viability, T/C [19]: 126% | viability, T/C [20]: 102% | viability, T/C [21]: 90.6% | viability, T/C [22]: 58.8% | viability, T/C [23]: 53% | viability, T/C [24]: 43.5% | viability, T/C [25]: 1.51% | viability, T/C [26]: 1.41% | viability, T/C [27]: 1.32% | viability, T/C [28]: 0.82% | viability, T/C [29]: 0.74% | viability, T/C [30]: 0.49%

COc1cc(C)[nH]c(=O)c1CN1CCc2c(Cl)cc(C(OC)C3COC3)c(Cl)c2C1=O (stereo not given) + COc1cc2c(cc1O)CCNC21CSC2c3c(OC(C)=O)c(C)c4c(c3C(COC1=O)N1C(O)C3Cc5cc(C)c(OC)c(O)c5C(C21)N3C)OCO4
IC50 (second compound 30 pM): > 10 µM | IC50 (second compound 94.9 pM): > 10 µM | IC50 (second compound 0.0003 µM): > 10 µM | IC50 (second compound 0.000949 µM): > 10 µM | IC50 (second compound 0.003 µM): < 0.0316 µM | viability, T/C [1]: 115% | viability, T/C [2]: 131% | viability, T/C [3]: 128% | viability, T/C [4]: 115% | viability, T/C [5]: 126% | viability, T/C [6]: 129% | viability, T/C [7]: 103% | viability, T/C [8]: 113% | viability, T/C [9]: 125% | viability, T/C [10]: 119% | viability, T/C [11]: 127% | viability, T/C [12]: 114% | viability, T/C [13]: 133% | viability, T/C [14]: 133% | viability, T/C [15]: 130% | viability, T/C [16]: 148% | viability, T/C [17]: 140% | viability, T/C [18]: 136% | viability, T/C [19]: 103% | viability, T/C [20]: 119% | viability, T/C [21]: 111% | viability, T/C [22]: 115% | viability, T/C [23]: 114% | viability, T/C [24]: 109% | viability, T/C [25]: 3.38% | viability, T/C [26]: 1.73% | viability, T/C [27]: 1.1% | viability, T/C [28]: 1.4% | viability, T/C [29]: 1.04% | viability, T/C [30]: 0.69%

Cc1cc(C)c(CNC(=O)c2cc(-c3ccc(CN4CCOCC4)cc3)cc3c2cnn3C2CCCC2)c(=O)[nH]1 + COc1cc2c(cc1O)CCNC21CSC2c3c(OC(C)=O)c(C)c4c(c3C(COC1=O)N1C(O)C3Cc5cc(C)c(OC)c(O)c5C(C21)N3C)OCO4
IC50 (second compound 30 pM): > 10 µM | IC50 (second compound 94.9 pM): > 10 µM | IC50 (second compound 0.0003 µM): > 10 µM | IC50 (second compound 0.000949 µM): > 10 µM | IC50 (second compound 0.003 µM): < 0.0316 µM | viability, T/C [1]: 87.5% | viability, T/C [2]: 106% | viability, T/C [3]: 96.8% | viability, T/C [4]: 93.8% | viability, T/C [5]: 86.7% | viability, T/C [6]: 95.8% | viability, T/C [7]: 98.3% | viability, T/C [8]: 100% | viability, T/C [9]: 101% | viability, T/C [10]: 96.6% | viability, T/C [11]: 83.1% | viability, T/C [12]: 91.8% | viability, T/C [13]: 105% | viability, T/C [14]: 115% | viability, T/C [15]: 109% | viability, T/C [16]: 110% | viability, T/C [17]: 110% | viability, T/C [18]: 93.3% | viability, T/C [19]: 108% | viability, T/C [20]: 104% | viability, T/C [21]: 113% | viability, T/C [22]: 103% | viability, T/C [23]: 92.3% | viability, T/C [24]: 97.8% | viability, T/C [25]: 3.24% | viability, T/C [26]: 1.05% | viability, T/C [27]: 2.46% | viability, T/C [28]: 0.49% | viability, T/C [29]: 0.37% | viability, T/C [30]: 0.44%

Cc1sc2c(c1C)C(c1ccc(Cl)cc1)=NC(CC(=O)Nc1ccc(O)cc1)c1nnc(C)n1-2 (stereo not given) + COc1cc2c(cc1O)CCNC21CSC2c3c(OC(C)=O)c(C)c4c(c3C(COC1=O)N1C(O)C3Cc5cc(C)c(OC)c(O)c5C(C21)N3C)OCO4
IC50 (second compound 30 pM): > 3 µM | IC50 (second compound 94.9 pM): > 3 µM | IC50 (second compound 0.0003 µM): > 3 µM | IC50 (second compound 0.000949 µM): 0.257 µM | IC50 (second compound 0.003 µM): < 0.00949 µM | viability, T/C (second compound 30 pM, first compound 0.00949 µM): 97% | viability, T/C (second compound 30 pM, first compound 0.03 µM): 93.1% | viability, T/C (second compound 30 pM, first compound 0.0949 µM): 84% | viability, T/C (second compound 30 pM, first compound 0.3 µM): 84.9% | viability, T/C (second compound 30 pM, first compound 0.949 µM): 68% | viability, T/C (second compound 30 pM, first compound 3 µM): 64.8% | viability, T/C (second compound 94.9 pM, first compound 0.00949 µM): 105% | viability, T/C (second compound 94.9 pM, first compound 0.03 µM): 91.8% | viability, T/C (second compound 94.9 pM, first compound 0.0949 µM): 87.1% | viability, T/C (second compound 94.9 pM, first compound 0.3 µM): 77.6% | viability, T/C (second compound 94.9 pM, first compound 0.949 µM): 73.9% | viability, T/C (second compound 94.9 pM, first compound 3 µM): 66% | viability, T/C (second compound 0.0003 µM, first compound 0.00949 µM): 101% | viability, T/C (second compound 0.0003 µM, first compound 0.03 µM): 84.7% | viability, T/C (second compound 0.0003 µM, first compound 0.0949 µM): 75.2% | viability, T/C (second compound 0.0003 µM, first compound 0.3 µM): 75.9% | viability, T/C (second compound 0.0003 µM, first compound 0.949 µM): 72.6% | viability, T/C (second compound 0.0003 µM, first compound 3 µM): 48.7% | viability, T/C (second compound 0.000949 µM, first compound 0.00949 µM): 138% | viability, T/C (second compound 0.000949 µM, first compound 0.03 µM): 78.6% | viability, T/C (second compound 0.000949 µM, first compound 0.0949 µM): 68.2% | viability, T/C (second compound 0.000949 µM, first compound 0.3 µM): 67.1% | viability, T/C (second compound 0.000949 µM, first compound 0.949 µM): 19.7% | viability, T/C (second compound 0.000949 µM, first compound 3 µM): 7.53% | viability, T/C (second compound 0.003 µM, first compound 0.00949 µM): 2.09% | viability, T/C (second compound 0.003 µM, first compound 0.03 µM): 0.99% | viability, T/C (second compound 0.003 µM, first compound 0.0949 µM): 0.74% | viability, T/C (second compound 0.003 µM, first compound 0.3 µM): 0.28% | viability, T/C (second compound 0.003 µM, first compound 0.949 µM): 0.28% | viability, T/C (second compound 0.003 µM, first compound 3 µM): 0.51%

[2H]c1nc(C)nc([2H])c1-c1cc(NC[C@@H](C)c2cccc3c(C(=O)NC)ccnc23)ncn1 + COc1cc2c(cc1O)CCNC21CSC2c3c(OC(C)=O)c(C)c4c(c3C(COC1=O)N1C(O)C3Cc5cc(C)c(OC)c(O)c5C(C21)N3C)OCO4
IC50 (second compound 30 pM): > 10 µM | IC50 (second compound 94.9 pM): > 10 µM | IC50 (second compound 0.0003 µM): > 10 µM | IC50 (second compound 0.000949 µM): > 10 µM | IC50 (second compound 0.003 µM): < 0.0316 µM | viability, T/C [1]: 99.6% | viability, T/C [2]: 101% | viability, T/C [3]: 93% | viability, T/C [4]: 106% | viability, T/C [5]: 111% | viability, T/C [6]: 101% | viability, T/C [7]: 99.1% | viability, T/C [8]: 101% | viability, T/C [9]: 100% | viability, T/C [10]: 101% | viability, T/C [11]: 103% | viability, T/C [12]: 103% | viability, T/C [13]: 105% | viability, T/C [14]: 110% | viability, T/C [15]: 115% | viability, T/C [16]: 118% | viability, T/C [17]: 98.7% | viability, T/C [18]: 118% | viability, T/C [19]: 105% | viability, T/C [20]: 114% | viability, T/C [21]: 102% | viability, T/C [22]: 112% | viability, T/C [23]: 101% | viability, T/C [24]: 105% | viability, T/C [25]: 3.26% | viability, T/C [26]: 3.28% | viability, T/C [27]: 1.57% | viability, T/C [28]: 2.56% | viability, T/C [29]: 1.3% | viability, T/C [30]: 0.8%
